Columns and labels:
Assay in all cases: weeding effect in post-emergence stage
Assay type in all cases: in vivo
Beckmannia syzigachne = system: Beckmannia syzigachne
Method in brief: (§1)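 Potted weeds were sown, covered with 0.5-2 cm soil and grown in a greenhouse, then sprayed at the 2-3 leaf stage (2 weeks after sowing) via spray tower; compounds in acetone with Tween 80 and 1.5 liter/ha methyl oleate concentrate; doses 500-7.5 g a.i./ha. Fresh-weight control scored on 0-5 levels after 3 weeks; triplicate means.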

Conyza japonica = system: Conyza japonica
Method in brief: as §1

Alopecurus japonicus = system: Alopecurus japonicus
Method in brief: as §1

Rorippa indica = system: Rorippa indica
Method in brief: as §1

SMILES | weeding effect in post-emergence stage, Beckmannia syzigachne (activity level) (Beckmannia syzigachne; dose 15 g a.i./ha) | weeding effect in post-emergence stage, Conyza japonica (activity level) (Conyza japonica; dose 15 g a.i./ha) | weeding effect in post-emergence stage, Alopecurus japonicus (activity level) (Alopecurus japonicus; dose 15 g a.i./ha) | weeding effect in post-emergence stage, Rorippa indica (activity level) (Rorippa indica; dose 15 g a.i./ha) | weeding effect in post-emergence stage, Beckmannia syzigachne (activity level) (Beckmannia syzigachne; dose 125 g a.i./ha) | weeding effect in post-emergence stage, Conyza japonica (activity level) (Conyza japonica; dose 125 g a.i./ha) | weeding effect in post-emergence stage, Alopecurus japonicus (activity level) (Alopecurus japonicus; dose 125 g a.i./ha) | weeding effect in post-emergence stage, Rorippa indica (activity level) (Rorippa indica; dose 125 g a.i./ha)
CCOC(=O)[C@@]1(C(C)C)CC(c2cc(-n3c(=O)n(C)c(=S)n(C)c3=S)c(F)cc2Cl)=NO1 [204(S)] | 5 (Level 5: growth control rate is above 85%) | 5 (Level 5: growth control rate is above 85%) | 5 (Level 5: growth control rate is above 85%) | 5 (Level 5: growth control rate is above 85%) | – | – | – | –
CCCC[C@@]1(C(=O)OCC)CC(c2cc(-n3c(=O)n(C)c(=S)n(C)c3=S)c(F)cc2Cl)=NO1 [205(S)] | 5 (Level 5: growth control rate is above 85%) | 5 (Level 5: growth control rate is above 85%) | 5 (Level 5: growth control rate is above 85%) | 5 (Level 5: growth control rate is above 85%) | – | – | – | –
CCOC(=O)[C@]1(C(F)(F)F)CC(c2cc(-n3c(=O)n(C)c(=S)n(C)c3=S)c(F)cc2Cl)=NO1 [206(S)] | 5 (Level 5: growth control rate is above 85%) | 5 (Level 5: growth control rate is above 85%) | 5 (Level 5: growth control rate is above 85%) | 5 (Level 5: growth control rate is above 85%) | – | – | – | –
CCOC(=O)[C@@]1(COC=O)CC(c2cc(-n3c(=O)cc(C(F)(F)F)n(C)c3=O)c(F)cc2Cl)=NO1 [218(S)] | 5 (Level 5: growth control rate is above 85%) | 5 (Level 5: growth control rate is above 85%) | 5 (Level 5: growth control rate is above 85%) | 5 (Level 5: growth control rate is above 85%) | – | – | – | –
CCOC(=O)[C@@]1(COC(=O)C(=O)O)CC(c2cc(-n3c(=O)cc(C(F)(F)F)n(C)c3=O)c(F)cc2Cl)=NO1 [220(S)] | 5 (Level 5: growth control rate is above 85%) | 5 (Level 5: growth control rate is above 85%) | 5 (Level 5: growth control rate is above 85%) | 5 (Level 5: growth control rate is above 85%) | – | – | – | –
COC(=O)[C@]1(OC)CC(c2cc(-n3c(=O)cc(C(F)(F)F)n(C)c3=O)c(F)cc2Cl)=NO1 [226(S)] | 5 (Level 5: growth control rate is above 85%) | 5 (Level 5: growth control rate is above 85%) | 5 (Level 5: growth control rate is above 85%) | 5 (Level 5: growth control rate is above 85%) | – | – | – | –
CCOC(=O)[C@]1(CC)CC(c2cc(-n3c(=S)cc(C(F)(F)F)n(C)c3=O)c(F)cc2Cl)=NO1 [228(S)] | – | – | – | – | 5 (Level 5: growth control rate is above 85%) | 5 (Level 5: growth control rate is above 85%) | 5 (Level 5: growth control rate is above 85%) | 5 (Level 5: growth control rate is above 85%)
CCOC(=O)[C@]1(CC)CC(c2cc(-n3c(=O)cc(C(F)(F)F)n(C)c3=S)c(F)cc2Cl)=NO1 [229(S)] | 5 (Level 5: growth control rate is above 85%) | 5 (Level 5: growth control rate is above 85%) | 5 (Level 5: growth control rate is above 85%) | 5 (Level 5: growth control rate is above 85%) | – | – | – | –
CCOC(=O)C1(C)CC(c2cc(-n3c(=O)cc(C(F)(F)F)n(C)c3=O)c(F)cc2Cl)=NO1 (stereo not shown) [Compound 1-9] | 5 (Level 5: growth control rate is above 85%) | 5 (Level 5: growth control rate is above 85%) | 5 (Level 5: growth control rate is above 85%) | 5 (Level 5: growth control rate is above 85%) | – | – | – | –
CCOC(=O)CCC1(C)CC(c2cc(-n3c(=O)cc(C(F)(F)F)n(C)c3=O)c(F)cc2Cl)=NO1 (stereo not shown) [Compound 1-37] | 5 (Level 5: growth control rate is above 85%) | 5 (Level 5: growth control rate is above 85%) | 5 (Level 5: growth control rate is above 85%) | 5 (Level 5: growth control rate is above 85%) | – | – | – | –
